Assay results published in patent publication US9521846B2, “Template-fixed peptidomimetics with antimicrobial activity” (priority 2006, dated 2016).
Values after ≈ are worked out from the molar mass of the structure shown. Non-standard residues stand in square brackets, D forms with d. Residues, ends and D or L forms follow the SMILES beside them. Cha = N[C@@H](CC1CCCCC1)C(=O)O; Cit = NC(=O)NCCC[C@H](N)C(=O)O; Nle = CCCC[C@H](N)C(=O)O; Dab = NCC[C@H](N)C(=O)O

Key:
HELA cells (Acc57) = experiment: Cytotoxicity assay, MTT reduction (LC 50, GI 50); type: cell-based
Method in brief: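 Read-out was MTT reduction (A595) after 48 h peptide exposure (12.5–50 μM, triplicates) of HeLa cells plated at 7.0×10^3/well and precultured 24 h. Growth % was normalised to a time-zero reading. Linear trend interpolation gave the concentration at −50% growth (LC50) and at 50% growth (GI50).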

[1] = test system: Pseudomonas aeruginosa P8191900; type: cell-based; conditions: P8191900
Method in brief: (§1)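 Modified NCCLS broth microdilution; MH broth + 0.02% BSA; inoculum ~10^6 CFU/ml (0.5 McFarland); 1:1 with 2-fold serial peptide dilutions.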

[2] = test system: Pseudomonas aeruginosa P1021913; type: cell-based; conditions: P1021913
Method in brief: as §1

[3] = test system: Pseudomonas aeruginosa P1021903; type: cell-based; conditions: P1021903
Method in brief: as §1

[4] = test system: Pseudomonas aeruginosa IMP 1 Livermore 3140; type: cell-based; conditions: IMP 1 Livermore 3140
Method in brief: as §1

[5] = test system: human red blood cells (hRBC); experiment: Hemolysis; type: cell-based; conditions: 100
P. aeruginosa ATCC 27853 = type: cell-based, Pseudomonas aeruginosa; conditions: ATCC 27853
Method in brief: as §1

| Structure (SMILES) | MIC P. aeruginosa P8191900 [1] [µg/mL] | MIC P. aeruginosa P1021913 [2] [µg/mL] | MIC P. aeruginosa P1021903 [3] [µg/mL] | MIC P. aeruginosa IMP1 Livermore 3140 [4] [µg/mL] | Average MIC (P. aeruginosa) [µg/mL] | MIC P. aeruginosa ATCC 27853 (P. aeruginosa ATCC 27853) [µg/mL] | Cytotoxicity GI50 Hela cells (HELA cells (Acc57)) [µM] | Hemolysis at 100 μg/ml [5] [%] |
| --- | --- | --- | --- | --- | --- | --- | --- | --- |
| CC[C@H](C)[C@@H]1NC(=O)[C@H](Cc2c[nH]c3ccccc23)NC(=O)[C@H](CCCNC(N)=O)NC(=O)[C@@H]2CCCN2C(=O)[C@H]2CCCN2C(=O)[C@H](CCN)NC(=O)[C@H](C)NC(=O)[C@H](CCN)NC(=O)[C@H](CCN)NC(=O)[C@H](Cc2c[nH]c3ccccc23)NC(=O)[C@H](CCN)NC(=O)[C@H](CCN)NC(=O)[C@H](CCCCN)NC(=O)[C@H](CCN)NC1=O [Example 18] (cyclo([Cit]WI[Dab]K[Dab][Dab]W[Dab][Dab]A[Dab][dP]P)) | 0.10 (≈ 0.0611 µM) | 0.81 (≈ 0.495 µM) | 0.10 (≈ 0.0611 µM) | 0.30 (≈ 0.183 µM) | 0.28 | 0.06 (≈ 0.0367 µM) | 50 | 0.4 |
| CC[C@H](C)[C@@H]1NC(=O)[C@H](Cc2c[nH]c3ccccc23)NC(=O)[C@H]([C@@H](C)O)NC(=O)[C@@H]2CCCN2C(=O)[C@H]2CCCN2C(=O)[C@H](CCN)NC(=O)[C@H](C(C)C)NC(=O)[C@H](CCN)NC(=O)[C@H](CCN)NC(=O)[C@H](Cc2c[nH]c3ccccc23)NC(=O)[C@H](CCN)NC(=O)[C@H](CCN)NC(=O)[C@H](CCCCN)NC(=O)[C@H](CCC(N)=O)NC1=O [Example 30] (cyclo(TWIQK[Dab][Dab]W[Dab][Dab]V[Dab][dP]P)) | 0.13 (≈ 0.0794 µM) | 0.50 (≈ 0.305 µM) | 0.30 (≈ 0.183 µM) | 2.00 (≈ 1.22 µM) | 0.60 | 0.09 (≈ 0.055 µM) | 46 | 0.5 |
| CC[C@H](C)[C@@H]1NC(=O)[C@H](Cc2ccc(O)cc2)NC(=O)[C@H]([C@@H](C)O)NC(=O)[C@@H]2CCCN2C(=O)[C@H]2CCCN2C(=O)[C@H](CCN)NC(=O)[C@H](C)NC(=O)[C@H](CCN)NC(=O)[C@H](CCN)NC(=O)[C@H](Cc2c[nH]c3ccccc23)NC(=O)[C@H](CCN)NC(=O)[C@H](CCN)NC(=O)[C@H](CCCCN)NC(=O)[C@H](CCN)NC1=O [Example 19] (cyclo(TYI[Dab]K[Dab][Dab]W[Dab][Dab]A[Dab][dP]P)) | 0.05 (≈ 0.0321 µM) | 0.10 (≈ 0.0642 µM) | 0.03 (≈ 0.0193 µM) | 0.10 (≈ 0.0642 µM) | 0.06 | 0.03 (≈ 0.0193 µM) | 50 | 0.2 |
| CC[C@H](C)[C@@H]1NC(=O)[C@H](Cc2c[nH]c3ccccc23)NC(=O)[C@H]([C@@H](C)O)NC(=O)[C@@H]2CCCN2C(=O)[C@H]2CCCN2C(=O)[C@H](CCN)NC(=O)[C@@H](C(C)C)NC(=O)[C@H](CCN)NC(=O)[C@H](CCN)NC(=O)[C@H](Cc2c[nH]c3ccccc23)NC(=O)[C@H](CCN)NC(=O)[C@H](CCN)NC(=O)[C@H](CCCCN)NC(=O)[C@H](CCN)NC1=O [Example 4] (cyclo(TWI[Dab]K[Dab][Dab]W[Dab][Dab][dV][Dab][dP]P)) | 1.50 (≈ 0.932 µM) | 2.50 (≈ 1.55 µM) | 1.50 (≈ 0.932 µM) | >2.0 | >1 | 0.75 (≈ 0.466 µM) | 40 | 0.6 |
| CCCC[C@@H]1NC(=O)[C@H](CCN)NC(=O)[C@H](CCN)NC(=O)[C@H](Cc2c[nH]c3ccccc23)NC(=O)[C@H](CCN)NC(=O)[C@H](CCN)NC(=O)[C@H](CCCCN)NC(=O)[C@H](CCN)NC(=O)[C@H]([C@@H](C)CC)NC(=O)[C@H](Cc2c[nH]c3ccccc23)NC(=O)[C@H]([C@@H](C)O)NC(=O)[C@@H]2CCCN2C(=O)[C@H]2CCCN2C(=O)[C@H](CCN)NC1=O [Example 9] (cyclo(TWI[Dab]K[Dab][Dab]W[Dab][Dab][Nle][Dab][dP]P)) | 0.75 (≈ 0.462 µM) | 0.75 (≈ 0.462 µM) | 1.50 (≈ 0.924 µM) | >2 | >1 | 0.21 (≈ 0.129 µM) | 50 | 0.7 |

Now from value to compound, other results behind:

| MIC P. aeruginosa P8191900 [1] [µg/mL] | MIC P. aeruginosa P1021913 [2] [µg/mL] | MIC P. aeruginosa P1021903 [3] [µg/mL] | MIC P. aeruginosa IMP1 Livermore 3140 [4] [µg/mL] | Average MIC (P. aeruginosa) [µg/mL] | MIC P. aeruginosa ATCC 27853 (P. aeruginosa ATCC 27853) [µg/mL] | Structure (SMILES) | Cytotoxicity GI50 Hela cells (HELA cells (Acc57)) [µM] | Hemolysis at 100 μg/ml [5] [%] |
| --- | --- | --- | --- | --- | --- | --- | --- | --- |
| 0.40 (≈ 0.257 µM) | 0.31 (≈ 0.199 µM) | 0.21 (≈ 0.135 µM) | 1.25 (≈ 0.802 µM) | 0.48 | 0.21 (≈ 0.135 µM) | CC[C@H](C)[C@@H]1NC(=O)[C@H](Cc2c[nH]c3ccccc23)NC(=O)[C@H]([C@@H](C)O)NC(=O)[C@@H]2CCCN2C(=O)[C@H]2CCCN2C(=O)[C@H](CCN)NC(=O)[C@H](C)NC(=O)[C@H](CCN)NC(=O)[C@H](CCN)NC(=O)[C@H](Cc2ccc(O)cc2)NC(=O)[C@H](CCN)NC(=O)[C@H](CCN)NC(=O)[C@H](CCCCN)NC(=O)[C@H](CCN)NC1=O [Example 20] (cyclo(TWI[Dab]K[Dab][Dab]Y[Dab][Dab]A[Dab][dP]P)) | 50 | 0.2 |
| 0.30 (≈ 0.183 µM) | 0.31 (≈ 0.189 µM) | 0.40 (≈ 0.244 µM) | 0.75 (≈ 0.458 µM) | 0.40 | 0.21 (≈ 0.128 µM) | CC[C@H](C)[C@@H]1NC(=O)[C@H](Cc2c[nH]c3ccccc23)NC(=O)[C@H]([C@@H](C)O)NC(=O)[C@@H]2CCCN2C(=O)[C@H]2CCCN2C(=O)[C@H](CCN)NC(=O)[C@H](CCC(N)=O)NC(=O)[C@H](CCN)NC(=O)[C@H](CCN)NC(=O)[C@H](Cc2c[nH]c3ccccc23)NC(=O)[C@H](CCN)NC(=O)[C@H](CCN)NC(=O)[C@H](CCCCN)NC(=O)[C@H](CCN)NC1=O [Example 13] (cyclo(TWI[Dab]K[Dab][Dab]W[Dab][Dab]Q[Dab][dP]P)) | 50 | 0.4 |
| 0.17 (≈ 0.105 µM) | 0.27 (≈ 0.166 µM) | 0.17 (≈ 0.105 µM) | 1.06 (≈ 0.653 µM) | 0.35 | 0.09 (≈ 0.0554 µM) | CC[C@H](C)[C@@H]1NC(=O)[C@H](Cc2c[nH]c3ccccc23)NC(=O)[C@H]([C@@H](C)O)NC(=O)[C@@H]2CCCN2C(=O)[C@H]2CCCN2C(=O)[C@H](CCN)NC(=O)[C@H](CC(N)=O)NC(=O)[C@H](CCN)NC(=O)[C@H](CCN)NC(=O)[C@H](Cc2c[nH]c3ccccc23)NC(=O)[C@H](CCN)NC(=O)[C@H](CCN)NC(=O)[C@H](CCCCN)NC(=O)[C@H](CCN)NC1=O [Example 38] (cyclo(TWI[Dab]K[Dab][Dab]W[Dab][Dab]N[Dab][dP]P)) | 50 | 0.5 |
| 2.50 (≈ 1.53 µM) | 2.25 (≈ 1.37 µM) | 1.25 (≈ 0.763 µM) | >2 | >1 | 0.50 (≈ 0.305 µM) | CC[C@H](C)[C@@H]1NC(=O)[C@H](Cc2c[nH]c3ccccc23)NC(=O)[C@H]([C@@H](C)O)NC(=O)[C@@H]2CCCN2C(=O)[C@H]2CCCN2C(=O)[C@H](CCN)NC(=O)[C@H](CCC(=O)O)NC(=O)[C@H](CCN)NC(=O)[C@H](CCN)NC(=O)[C@H](Cc2c[nH]c3ccccc23)NC(=O)[C@H](CCN)NC(=O)[C@H](CCN)NC(=O)[C@H](CCCCN)NC(=O)[C@H](CCN)NC1=O [Example 15] (cyclo(TWI[Dab]K[Dab][Dab]W[Dab][Dab]E[Dab][dP]P)) | 50 | 0.3 |
| 1.00 (≈ 0.601 µM) | 0.75 (≈ 0.451 µM) | 2.00 (≈ 1.2 µM) | >2 | >1 | 0.40 (≈ 0.241 µM) | CC[C@H](C)[C@@H]1NC(=O)[C@H](Cc2c[nH]c3ccccc23)NC(=O)[C@H]([C@@H](C)O)NC(=O)[C@@H]2CCCN2C(=O)[C@H]2CCCN2C(=O)[C@H](CCN)NC(=O)[C@H](CC2CCCCC2)NC(=O)[C@H](CCN)NC(=O)[C@H](CCN)NC(=O)[C@H](Cc2c[nH]c3ccccc23)NC(=O)[C@H](CCN)NC(=O)[C@H](CCN)NC(=O)[C@H](CCCCN)NC(=O)[C@H](CCN)NC1=O [Example 12] (cyclo(TWI[Dab]K[Dab][Dab]W[Dab][Dab][Cha][Dab][dP]P)) | 50 | 0.7 |
